Assay results reported in patent US20220002307A1, “FGFR4 INHIBITOR AND USE THEREOF” (BETTA PHARMACEUTICALS CO., LTD, priority 2018, published 2022).

Tests used:
FGFR1 = FGFR1 (Homo sapiens, UniProt P11362); assay: Kinase assay (mobility shift assay), FGFR1; format: biochemical; conditions: compound and enzyme incubated for 60 mins
Description: [The source words this procedure for another target and reports this target under the same test.] (§1) The effect of the compounds of the present invention on the activity of tyrosine kinase FGFR4 was evaluated with in vitro kinase detection experiment. The mobility shift assay was used in the experiment, and a fluorescently labeled polypeptide was used as the substrate, the substrate was transformed into a product under the action of the enzyme in the reaction system, and its charge has also changed accordingly. This method can use the difference between the charge of the substrate and the product to separate them, and then detect them separately.
(§2) DMSO solution of compound (300 μM) was diluted to a 100-fold final concentration of DMSO solution in a 384-well plate, 3-fold dilution, 250 nL of the compound with 100-fold final concentration was transferred to the target plate OptiPlate-384F by a dispenser Echo 550. The final concentration of the compound were 3000 nM, 1000 nM, 333.3 nM, 111.1 nM, 37.04 nM, 12.35 nM, 4.115 nM, 1.372 nM, 0.4572 nM, 0.1524 nM, the compound and the enzyme were incubated for 60 mins,
(§3) Prepared 1× kinase buffer, used the 1× kinase buffer to prepare 2.5 fold final concentration of kinase solution, 10 μL of 2.5 fold final concentration kinase solution was added to the compound well and the positive control well respectively, and 10 μL of 1× kinase buffer was added to the negative control well. After centrifugation, the reaction plate was shaken and mixed and incubated at room temperature for 60 mins, a mixture of 25/15 fold final concentration of adenosine triphosphate (ATP) and kinase substrate 22 was prepared with 1× kinase buffer. 15 μL of 25/15 fold final concentration of ATP and substrate mixed solution was added to start the reaction, 384-well plate was centrifuged, mixed, and then incubated at room temperature for 30 minutes, 30 μL of the stop detection solution was added to stop the kinase reaction, and the conversion rate was readed with Caliper EZ Reader after centrifugation and mixing;
(§4) wherein: Conversion %_sample was the conversion rate of the sample; Conversion %_min was the average value of the negative control well, which represent the conversion rate of the well without enzyme activity, Conversion %_max was the average value of the positive control well, which represent the conversion rate of the well without compound inhibition.
(§5) Take the log value of the concentration as the X axis, the percentage inhibition rate as the Y axis, and use GraphPad Prism's log(inhibitor) vs. response-Variable slope (four parameters) of the analysis software to fit the dose-response curve to obtain the IC50 value of each compound on the enzyme. The formula is as follows: Y=Bottom+(Top−Bottom)/(1+10^((Log IC50−X)*HillSlope)).

tyrosine kinase FGFR4 = tyrosine kinase FGFR4 (Homo sapiens, UniProt P22455); assay: Kinase assay (mobility shift assay), FGFR4; format: biochemical; conditions: compound and enzyme incubated for 60 mins
Chain of tyrosine kinase FGFR4 (P22455 22-802): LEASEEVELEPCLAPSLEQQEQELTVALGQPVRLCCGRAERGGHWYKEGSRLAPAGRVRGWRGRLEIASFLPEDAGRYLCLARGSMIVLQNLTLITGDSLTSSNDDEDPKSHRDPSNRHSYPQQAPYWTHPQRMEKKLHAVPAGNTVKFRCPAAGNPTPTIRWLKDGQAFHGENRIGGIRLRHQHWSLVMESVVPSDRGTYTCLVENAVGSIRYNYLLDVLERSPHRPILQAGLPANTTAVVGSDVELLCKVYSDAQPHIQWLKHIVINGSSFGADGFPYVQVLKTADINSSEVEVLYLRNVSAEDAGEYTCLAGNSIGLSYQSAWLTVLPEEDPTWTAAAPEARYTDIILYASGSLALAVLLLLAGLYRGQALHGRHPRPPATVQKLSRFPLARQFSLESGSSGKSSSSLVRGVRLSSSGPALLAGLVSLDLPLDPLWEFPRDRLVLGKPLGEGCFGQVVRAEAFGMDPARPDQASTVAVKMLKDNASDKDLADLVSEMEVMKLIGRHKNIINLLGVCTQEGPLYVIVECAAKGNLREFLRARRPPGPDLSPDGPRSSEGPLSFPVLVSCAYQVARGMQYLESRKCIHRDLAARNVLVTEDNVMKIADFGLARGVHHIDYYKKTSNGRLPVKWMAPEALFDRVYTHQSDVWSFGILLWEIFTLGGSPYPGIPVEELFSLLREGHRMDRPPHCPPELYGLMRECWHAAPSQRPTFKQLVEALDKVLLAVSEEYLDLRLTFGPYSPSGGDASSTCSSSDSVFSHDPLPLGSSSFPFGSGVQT
Description: as §1, §2, §3, §4, §5

[1] = system: human liver cancer cells Hep3B cells; assay: Cell proliferation assay (CellTiter-Glo); format: cell-based; conditions: 96 hrs incubation, CTG detection, read-out: IC50(nM) of the compound on Hep3B cells
From the text: In vitro cell assay was used to measure the effects of the compound of the present invention on the proliferation of human liver cancer cells Hep3B cells. The CELL TITER-GLO (CTG) luminescent was used as detection method in the assay, which can detect the number of living cells by quantitatively determining ATP. Because ATP participates in a variety of enzymatic reactions in organisms, it is an indicator of the metabolism of living cells, and its content directly reflects the number and cell state of cells, during the experiment, add CellTiter-Glo™ reagent to the cell culture medium to measure the luminescence, the luminescence value is directly proportional to the amount of ATP, and ATP is positively related to the number of living cells, so cell viability can be inspected by detecting the ATP content.
Take a bottle of Hep3B cells in logarithmic growth phase, the cells were counted after digestion and resuspension, and then were adjusted the cell density and seeded at 180 μL per well (1500 cells/well) into a 96-well plate, the plate was incubated for 24 hrs in 37° C. 5% CO2 incubator;
The 600 μM test substance dissolved in DMSO was diluted with DMSO in a 1:3 ratio to a 200-fold final concentration solution, then the cell culture medium was diluted 20 fold (10×), and 20 μL of the compound solution was added to the 96 wells containing cells in the plate, the final concentration of the compound from high to low was 3000 nM, 1000 nM, 333.3 nM, 111.1 nM, 37.04 nM, 12.35 nM, 4.115 nM, 1.372 nM, 0.4572 nM, and the well plate was placed in a 37° C. 5% CO2 incubator for 96 hrs;
After 96 hrs of incubation, 60 μL of CellTiter-Glo® Luminescent Cell Viability Assay solution was added to each well, gently shaked for 2 mins, continued incubating for 10 mins at room temperature, and the luminescence value of each well on the multifunctional microplate reader was readed.
Calculated the inhibition rate base on the luminous value,
Inhibition rate %=(blank group value−administration group value)/(blank group value−apoptosis group value)*100
The log value of the concentration was used as the X axis, and the percentage inhibition rate was used as the Y axis. Log (inhibitor) vs. response-Variable slope (four parameters) of GraphPad Prism's was used to fit the dose-response curve, and the IC50 of the compound to inhibit cell proliferation was calculated.

[2] = system: human hepatocarcinoma cells Hep3B; assay: Xenograft tumor model; format: in vivo; conditions: for inhibitory rate on tumor volume growth of Hep3B (TGI): BID×14; for inhibitory rate of tumor weight growth (TGI): BID×14, tumor weight after the last dose; for body weight (routine determination of toxicity): during the entire experiment, at the treatment doses
Description: BALB/c nu/nu female mice were inoculated subcutaneously in the right anterior scapula of 5×10^6 human hepatocarcinoma cells Hep3B, and the volume ratio of cell suspension to matrigel was 1:1 (0.2/mL/mouse). The mice were grouped according to tumor size until the average tumor volume was 158 mm^3. The treatment group was given a test compound solution prepared with an appropriate solvent, and the solvent control group was given a blank solvent. During the treatment, the tumor volume was measured twice a week, and the tumor weight was measured after the last dose to determine the compound activity. The tumor growth inhibition rate (%, TGI) was calculated by comparing the tumor volume and weight of the treatment group and the solvent control group. Body weight measurement, as a routine determination of toxicity, has the same frequency as the tumor volume measurement.

Chain of FGFR1 (P11362 22-822): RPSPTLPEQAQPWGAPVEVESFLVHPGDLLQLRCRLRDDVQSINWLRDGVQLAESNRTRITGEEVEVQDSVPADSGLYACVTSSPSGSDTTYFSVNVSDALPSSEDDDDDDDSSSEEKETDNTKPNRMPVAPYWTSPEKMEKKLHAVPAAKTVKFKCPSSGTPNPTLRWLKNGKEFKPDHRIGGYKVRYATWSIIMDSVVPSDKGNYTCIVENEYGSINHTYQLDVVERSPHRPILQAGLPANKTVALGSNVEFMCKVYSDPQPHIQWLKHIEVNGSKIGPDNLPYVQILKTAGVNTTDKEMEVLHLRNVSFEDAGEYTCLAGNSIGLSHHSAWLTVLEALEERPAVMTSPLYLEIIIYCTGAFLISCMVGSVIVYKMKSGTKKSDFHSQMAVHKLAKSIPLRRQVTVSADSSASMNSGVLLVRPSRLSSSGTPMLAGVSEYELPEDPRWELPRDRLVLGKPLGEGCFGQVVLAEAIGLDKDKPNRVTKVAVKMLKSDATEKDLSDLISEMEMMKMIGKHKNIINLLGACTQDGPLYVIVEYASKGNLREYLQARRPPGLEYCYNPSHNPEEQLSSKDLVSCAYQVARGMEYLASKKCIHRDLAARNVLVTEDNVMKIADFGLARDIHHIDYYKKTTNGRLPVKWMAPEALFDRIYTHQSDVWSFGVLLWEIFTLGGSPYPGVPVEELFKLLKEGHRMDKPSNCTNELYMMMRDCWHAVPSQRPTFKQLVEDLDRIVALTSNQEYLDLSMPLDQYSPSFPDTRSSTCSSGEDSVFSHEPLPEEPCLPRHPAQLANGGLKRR

Compound | IC50 (FGFR1) [nM] | IC50 (tyrosine kinase FGFR4) [nM] | IC50 [1] [nM] | also measured
C=CC(=O)N[C@H]1CCOC[C@H]1Nc1ncc2c(n1)-c1cc(C(F)(F)F)cnc1N(c1c(Cl)c(OC)cc(OC)c1Cl)C2 [Compound 16, N-((3S,4S)-3-((6-(2,6-dichloro-3,5-dimethoxyphenyl)-9-(trifluoromethyl)-5,6-dihydropyrimido[5,4-c][1,8]naphthyridin-2-yl)amino)tetrahydro-2H-pyran-4-yl)acrylamide] | 166 | 3.6 | 14.5 | inhibitory rate on tumor volume growth of Hep3B (TGI) ([2]; 50 mg/kg): 78.37%; inhibitory rate of tumor weight growth (TGI) ([2]; 50 mg/kg): 83.85%; body weight (routine determination of toxicity) [2]: did not show obvious weight losses
C=CC(=O)N[C@H]1CCOC[C@H]1Nc1ncc2cc(-c3c(Cl)c(OC)cc(OC)c3Cl)ccc2n1 [BLU554, reference compound] | 1480 | 13 | 62.7 | 
C=CC(=O)Nc1cc(N2CCC(N3CCOCC3)CC2)ccc1Nc1ncc2c(n1)-c1cccnc1N(c1c(Cl)c(OC)cc(OC)c1Cl)C2 [Compound 1, N-(2-((6-(2,6-dichloro-3,5-dimethoxyphenyl)-5,6-dihydropyrimido[5,4-c][1,8]naphthyridin-2-yl)amino)-5-(4-morpholinopiperidin-1-yl)phenyl)acrylamide] |  | 9.4 | 6.9 | 
C=CC(=O)N[C@H]1CCOC[C@H]1Nc1ncc2c(n1)-c1cc(C)cnc1N(c1c(Cl)c(OC)cc(OC)c1Cl)C2 [Compound 13, N-((3S,4S)-3-((6-(2,6-dichloro-3,5-dimethoxyphenyl)-9-methyl-5,6-dihydropyrimido[5,4-c][1,8]naphthyridin-2-yl)amino)tetrahydro-2H-pyran-4-yl)acrylamide] | 367 | 1 | 5.1 | inhibitory rate on tumor volume growth of Hep3B (TGI) ([2]; 50 mg/kg): 73.02%; inhibitory rate of tumor weight growth (TGI) ([2]; 50 mg/kg): 84.76%; inhibitory rate on tumor volume growth of Hep3B (TGI) ([2]; 100 mg/kg): 86.26%; inhibitory rate of tumor weight growth (TGI) ([2]; 100 mg/kg): 92.27%; inhibitory rate on tumor volume growth of Hep3B (TGI) ([2]; 200 mg/kg): 90.26%; inhibitory rate of tumor weight growth (TGI) ([2]; 200 mg/kg): 98.15%; body weight (routine determination of toxicity) [2]: did not show obvious weight losses
C=CC(=O)N[C@H]1CCOC[C@H]1Nc1ncc2cc(-c3c(Cl)c(OC)cc(OC)c3Cl)c3nncn3c2n1 [Compound 33, N-((3S,4S)-3-((6-(2,6-dichloro-3,5-dimethoxyphenyl)-[1,2,4]triazolo[4′,3′:1,6]pyrido[2,3-d]pyrimidin-2-yl)amino)tetrahydro-2H-pyran-4-yl)acrylamide] |  |  | 524 | 
C=CC(=O)N[C@H]1CCOC[C@H]1Nc1ncc2c(=O)n(-c3c(Cl)c(OC)cc(OC)c3Cl)c3ncccc3c2n1 [Compound 3, N-((3S,4S)-3-((6-(2,6-dichloro-3,5-dimethoxyphenyl)-5-oxo-5,6-dihydropyrimido[5,4-c][1,8]naphthyridin-2-yl)amino)tetrahydro-2H-pyran-4-yl)acrylamide] |  |  | > 3000 | 

More lines, main results first:

IC50 (FGFR1) [nM] | IC50 (tyrosine kinase FGFR4) [nM] | IC50 [1] [nM] | Compound | also measured
1530 | 1.8 | 10.6 | C=CC(=O)N[C@H]1CCOC[C@H]1Nc1ncc2c(n1)-c1cc(F)cnc1N(c1c(Cl)c(OC)cc(OC)c1Cl)C2 [Compound 11, N-((3S,4S)-3-((6-(2,6-dichloro-3,5-dimethoxyphenyl)-9-fluoro-5,6-dihydropyrimido[5,4-c][1,8]naphthyridin-2-yl)amino)tetrahydro-2H-pyran-4-yl)acrylamide] | 
912 | 10 |  | C=CC(=O)N[C@H]1CCOC[C@H]1Nc1ncc2c(n1)-c1cccnc1N(c1c(Cl)c(OC)cc(OC)c1Cl)C2 [Compound 2, N-((3S,4S)-3-((6-(2,6-dichloro-3,5-dimethoxyphenyl)-5,6-dihydropyrimido[5,4-c][1,8]naphthyridin-2-yl)amino)tetrahydro-2H-pyran-4-yl)acrylamide] | 
1440 | 2.6 | 18.7 | C=CC(=O)N[C@H]1CCOC[C@H]1Nc1ncc2c(n1)-c1cc(C)cnc1N(c1cc(OC)cc(OC)c1Cl)C2 [Compound 14, N-((3S,4S)-3-((6-(2-chloro-3,5-dimethoxyphenyl)-9-methyl-5,6-dihydropyrimido[5,4-c][1,8]naphthyridin-2-yl)amino)tetrahydro-2H-pyran-4-yl)acrylamide] | 
1000 | 5.2 |  | C=CC(=O)N[C@H]1CCOC[C@H]1Nc1ncc2c(n1)-c1ccc(C)nc1N(c1c(Cl)c(OC)cc(OC)c1Cl)C2 [Compound 15, N-((3S,4S)-3-((6-(2,6-dichloro-3,5-dimethoxyphenyl)-8-methyl-5,6-dihydropyrimido[5,4-c][1,8]naphthyridin-2-yl)amino)tetrahydro-2H-pyran-4-yl)acrylamide] | 
741 | 1.8 | 9.9 | C=CC(=O)N[C@H]1CCOC[C@H]1Nc1ncc2c(n1)-c1cc(Cl)cnc1N(c1c(Cl)c(OC)cc(OC)c1Cl)C2 [Compound 28, N-((3S,4S)-3-((9-chloro-6-(2,6-dichloro-3,5-dimethoxyphenyl)-5,6-dihydropyrimido[5,4-c][1,8]naphthyridin-2-yl)amino)tetrahydro-2H-pyran-4-yl)acrylamide] | 
 |  | 1030 | C=CC(=O)NC1CCOCC1Nc1ncc2c(=O)n(-c3c(Cl)c(OC)cc(OC)c3Cl)c3ncc(Cl)cc3c2n1 (stereo not shown) [Compound 34, N-(3-((9-chloro-6-(2,6-dichloro-3,5-dimethoxyphenyl)-5-oxo-5,6-dihydropyrimido[5,4-c][1,8]naphthyridin-2-yl)amino)tetrahydro-2H-pyran-4-yl)acrylamide] | 
